The results in this text go back to patent US20260306639A1, “DEGRADER FOR DECOMPOSING CMET PROTEIN, AND PHARMACEUTICAL COMPOSITION COMPRISING SAME” (INNOCURE THERAPEUTICS, INC., priority 2022, published 2026).

SMILES strings stand for the structures.

This test deals with c-MET. In words: c-MET protein degradation (Simple Western), MKN-45 cells. Format: cell-based, human. The conditions noted are these: MKN-45 gastric cancer cells, c-MET overexpressing; 24 hours. Here is the method: In order to assess the resolution of the compound of the present invention for c-MET expressed in cells, cells were dispensed in a 12-well plate at a concentration of 2×10^5 cells/well, and then gastric cancer cell lines were treated with samples for 24 hours and lung cancer cell lines were treated for 48 hours. Cell lysates were collected using a scraper on ice, centrifuged at 4° C. 15,000 rpm for 30 min to obtain a protein-containing supernatant. Protein expression was then measured using the Simple Western Automated Western Blot System Abby instrument using 3 μg of protein for each sample. SDS and heat-induced denaturation proteins were separated by molecular weight, attached to capillary, reacted with anti-c-MET or anti-GAPDH antibodies, which are primary antibodies, and then reacted with HRP-conjugated secondary antibodies, and analyzed the protein expression signal with compass software. Protein expression was normalized based on the expression value of GAPDH, and protein development in each sample was measured as a percentage (%) based on 100% of samples treated with 0.1% DMSO carriers, and DC50 (concentration of a compound where 50% protein inhibition is achieved) was calculated from the change in protein expression amount due to compound treatment.
One may read the DC50 as the concentration at which degradation of the target reaches its halfway point. A higher DC50 goes with a less potent degrader. In turn, `N#Cc1cccc(-c2ccc(=O)n(Cc3cccc(-c4ncc(OCC5CCN(C(=O)CCOCCOCCOCCOCCNc6cccc7cnn(C8CCC(=O)NC8=O)c(=O)c67)CC5)cn4)c3)n2)c1` (stereo not shown) [ICT-0000907] gave a DC50 of 100 to 1000 nM.

In turn, `Cn1cc(-c2cnc3c(nnn3C[C@@H]3CN(c4ncc(-c5ccc(CN6CCN(C(=O)CCCNc7ccc8c(=O)n(C9CCC(=O)NC9=O)ncc8c7)CC6)cc5)cn4)CCO3)n2)cn1` (stereo partly drawn) [ICT-0000922, 3-{6-[(4-{4-[(4-{2-[(2S)-2-{[5-(1-methyl-1H-pyrazole-4-yl)-1H-[1,2,3]triazolo[4,5-b]pyrazine-1-yl]methyl}morpholine-4-il]pyrimidine-5-yl}phenyl)methyl]piperazine-1-yl}-4-oxobutyl)amino]-1-oxo-1,2-dihydroptalazine-2-yl}piperidine-2,6-dione] came in with a DC50 of under 100 nM. As for `Cn1cc(-c2cnc3c(nnn3C[C@@H]3CN(c4ncc(-c5ccc(CN6CCN(C(=O)CCCCCNc7ccc8c(=O)n(C9CCC(=O)NC9=O)ncc8c7)CC6)cc5)cn4)CCO3)n2)cn1` (stereo partly drawn) [ICT-0000923, 3-{6-[(6-{4-[(4-{2-[(2S)-2-{[5-(1-methyl-1H-pyrazole-4-yl)-1H-[1,2,3]triazolo[4,5-b]pyrazine-1-yl]methyl}morpholine-4-day]pyrimidine-5-yl}phenyl)methyl]piperazine-1-yl}-6-oxohexyl)amino]-1-oxo-1,2-dihydrophthalazine-2-yl}piperidine-2,6-dione], the figure is under 100 nM. Molecule `Cn1cc(-c2cnc3c(nnn3C[C@@H]3CN(c4ncc(-c5ccc(CN6CCN(C(=O)CCCCNc7ccc8c(=O)n(C9CCC(=O)NC9=O)ncc8c7)CC6)cc5)cn4)CCO3)n2)cn1` (stereo partly drawn) [ICT-0000924, 3-(6-((5-(4-(4-(2-((S)-2-((5-(1-methyl-1H-pyrazole-4-yl)-1H-[1,2,3]triazolo[4,5-b]pyrazine-1-yl)methyl)morpholino)pyrimidine-5-yl)benzyl)piperazine-1-yl)5-oxopentyl)amino)1-oxopthalazine-2(1H)-yl)piperidine-2,6-dione] gave a 50% degradation concentration (DC50) of under 100 nM. Then `Cn1cc(-c2cnc3c(nnn3C[C@@H]3CN(c4ncc(-c5ccc(CN6CCN(C(=O)CCCCCCNc7ccc8c(=O)n(C9CCC(=O)NC9=O)ncc8c7)CC6)cc5)cn4)CCO3)n2)cn1` (stereo partly drawn) [ICT-0000925, 3-(6-((7-(4-(4-(2-((S)-2-((5-(1-methyl-1H-pyrazole-4-yl)-1H-[1,2,3]triazolo[4,5-b]pyrazine-1-yl)methyl)morpholino)pyrimidine-5-yl)benzyl)piperazine-1-yl)7-oxoheptyl)amino)1-oxopthalazine-2(1H)-yl)piperidine-2,6-dione], with under 100 nM; and `Cn1cc(-c2cnc3c(nnn3C[C@@H]3CN(c4ncc(-c5ccc(CN6CCN(C(=O)COCCOCCOCCNc7ccc8c(=O)n(C9CCC(=O)NC9=O)ncc8c7)CC6)cc5)cn4)CCO3)n2)cn1` (stereo partly drawn) [ICT-0000938, 3-[6-(12-{4-[(4-{2-[(2S)-2-{[5-(1-methyl-1H-pyrazole-4-yl)-1H-[1,2,3]triazolo[4,5-b]pyrazine-1-yl]methyl}morpholine-4-yl]pyrimidine-5-yl}phenyl)methyl]piperazine-1-yl}-12-oxo-4,7,10-trioxa-1-azadodecane-1-yl)-1-oxo-1,2-dihydroptalazine-2-yl]piperidine-2,6-dione], with over 1000 nM; and `Cn1cc(-c2cnc3c(nnn3C[C@@H]3CN(c4ncc(-c5ccc(CN6CCN(C(=O)COCCOCCOCCOCCNc7ccc8c(=O)n(C9CCC(=O)NC9=O)ncc8c7)CC6)cc5)cn4)CCO3)n2)cn1` (stereo partly drawn) [ICT-0000939, 3-[6-(15-{4-[(4-{2-[(2S)-2-{[5-(1-methyl-1H-pyrazole-4-yl)-1H-[1,2,3]triazolo[4,5-b]pyrazine-1-yl]methyl}morpholine-4-yl]pyrimidine-5-yl}phenyl)methyl]piperazine-1-yl}-15-oxo-4,7,10,13-tetraoxa-1-azpentadecane-1-yl)-1-oxo-1,2-dihydroptalazine-2-yl]piperidine-2,6-dione], with over 1000 nM. Then `Cn1cc(-c2cnc3c(nnn3C[C@@H]3CN(c4ncc(-c5ccc(CN6CCN(C(=O)CCOCCOCCNc7cccc8cnn(C9CCC(=O)NC9=O)c(=O)c78)CC6)cc5)cn4)CCO3)n2)cn1` (stereo partly shown) [ICT-0000940], with 100 to 1000 nM; and `Cn1cc(-c2cnc3c(nnn3C[C@@H]3CN(c4ncc(-c5ccc(CN6CCN(C(=O)CCCCNc7cccc8cnn(C9CCC(=O)NC9=O)c(=O)c78)CC6)cc5)cn4)CCO3)n2)cn1` (stereo partly drawn) [ICT-0000959, 3-{8-[(5-{4-[(4-{2-[(2S)-2-{[5-(1-methyl-1H-pyrazole-4-yl)-1H-[1,2,3]triazolo[4,5-b]pyrazine-1-yl]methyl}morpholine-4-il]pyrimidine-5-yl}phenyl)methyl]piperazine-1-yl}-5-oxopentyl)amino]-1-oxo-1,2-dihydropthalazine-2-yl}piperidine-2,6-dione], with under 100 nM. In the case of `Cn1cc(-c2cnc3c(nnn3CC3CN(c4ncc(-c5ccc(CN6CCN(C(=O)CCCNc7cccc8cnn(C9CCC(=O)NC9=O)c(=O)c78)CC6)cc5)cn4)CCO3)n2)cn1` [ICT-0000969, 3-(8-((4-(4-(4-(4-(2-((S)-2-((5-(1-methyl-1H-pyrazole-4-yl)-1H-[1,2,3]triazolo[4,5-b]pyrazine-1-yl)methyl)morpholino)pyrimidine-5-yl)benzyl)piperazine-1-yl)4-oxobutyl)amino)1-oxopthalazine-2(1H)-yl)piperidine-2,6-dione], the 50% degradation concentration (DC50) is under 100 nM. Then `Cc1nn(C2CCC(=O)NC2=O)c(=O)c2c(NCC(=O)N3CCC(COc4cnc(-c5cccc(Cn6nc(-c7cccc(C#N)c7)ccc6=O)c5)nc4)CC3)cccc12` (stereo not shown) [ICT-0000981], with over 1000 nM; and `N#Cc1cccc(-c2ccc(=O)n(Cc3cccc(-c4ncc(OCC5CCN(C(=O)CCCCCNc6ccc7c(=O)n(C8CCC(=O)NC8=O)ncc7c6)CC5)cn4)c3)n2)c1` (stereo not shown) [ICT-0000984, 3-(1-{[3-(5-{[1-(6-{[2-(2,6-dioxopiperidin-3-yl)-1-oxo-1,2-dihydroptalazine-6-yl]amino}hexanoyl)piperidine-4-il]methoxy}pyrimidine-2-yl)phenyl]methyl}-6-oxo-1,6-dihydropyridazine-3-yl)benzonitrile], with 100 to 1000 nM; and `N#Cc1cccc(-c2ccc(=O)n(Cc3cccc(-c4ncc(OCC5CCN(C(=O)CCCCCCNc6ccc7c(=O)n(C8CCC(=O)NC8=O)ncc7c6)CC5)cn4)c3)n2)c1` (stereo not shown) [ICT-0000985, 3-(1-{[3-(5-{[1-(7-{[2-(2,6-dioxopiperidin-3-yl)-1-oxo-1,2-dihydrophthalazine-6-yl]amino}heptanoyl)piperidine-4-il]methoxy}pyrimidine-2-yl)phenyl]methyl}-6-oxo-1,6-dihydropyridazine-3-yl)benzonitrile], with under 100 nM. As for `N#Cc1cccc(-c2ccc(=O)n(Cc3cccc(-c4ncc(OCC5CCN(C(=O)COCCOCCNc6ccc7c(=O)n(C8CCC(=O)NC8=O)ncc7c6)CC5)cn4)c3)n2)c1` (stereo not shown) [ICT-0000986, 3-{1-[(3-{5-[(1-{2-[2-(2-{[2-(2,6-dioxopiperidin-3-yl)-1-oxo-1,2-dihydropthalazine-6-yl]amino}ethoxy)ethoxy]acetyl}piperidine-4-il)methoxy]pyrimidine-2-yl}phenyl)methyl]-6-oxo-1,6-dihydropyridazine-3-yl}benzonitrile], the figure is under 100 nM.

Consider `Cc1nn(C2CCC(=O)NC2=O)c(=O)c2ccc(NCCCC(=O)N3CCC(COc4cnc(-c5cccc(Cn6nc(-c7cccc(C#N)c7)ccc6=O)c5)nc4)CC3)cc12` (stereo not shown) [ICT-0000989], for which the DC50 fell in the range of 100 to 1000 nM. Then `Cc1nn(C2CCC(=O)NC2=O)c(=O)c2ccc(NCCOCCOCC(=O)N3CCC(COc4cnc(-c5cccc(Cn6nc(-c7cccc(C#N)c7)ccc6=O)c5)nc4)CC3)cc12` (stereo not shown) [ICT-0001087], with under 100 nM; and `Cc1nn(C2CCC(=O)NC2=O)c(=O)c2ccc(NCCOCCOCCOCCOCCC(=O)N3CCC(COc4cnc(-c5cccc(Cn6nc(-c7cccc(C#N)c7)ccc6=O)c5)nc4)CC3)cc12` (stereo not shown) [ICT-0001091], with under 100 nM. Then `Cn1cc(-c2cnc3c(nnn3C[C@@H]3CN(c4ncc(-c5ccc(CN6CCN(C(=O)CN7CCN(c8ccc9c(=O)n(C%10CCC(=O)NC%10=O)ncc9c8)CC7)CC6)cc5)cn4)CCO3)n2)cn1` (stereo partly shown) [ICT-0001109], with under 100 nM; and `Cc1nn(C2CCC(=O)NC2=O)c(=O)c2cc(N3CCN(C(=O)CN4CCC(COc5cnc(-c6cccc(Cn7nc(-c8cccc(C#N)c8)ccc7=O)c6)nc5)CC4)CC3)ccc12` (stereo not shown) [ICT-0001115, 3-(1-(3-(5-((1-(2-(4-(3-(2,6-dioxopiperidin-3-yl)-1-methyl-4-oxo-3,4-dihydropetalazine-6-yl)piperazine-1-yl)2-oxoethyl)piperidine-4-il)methoxy)pyrimidine-2-yl)benzyl)6-oxo-1,6-dihydropyridazine-3-yl)benzonitrile], with under 100 nM; and `Cc1nn(C2CCC(=O)NC2=O)c(=O)c2ccc(N3CCN(CCC(=O)N4CCC(COc5cnc(-c6cccc(Cn7nc(-c8cccc(C#N)c8)ccc7=O)c6)nc5)CC4)CC3)cc12` (stereo not shown) [ICT-0001174], with under 100 nM. As for `Cc1nn(C2CCC(=O)NC2=O)c(=O)c2ccc(N3CCN(CCCC(=O)N4CCC(COc5cnc(-c6cccc(Cn7nc(-c8cccc(C#N)c8)ccc7=O)c6)nc5)CC4)CC3)cc12` (stereo not shown) [ICT-0001175, 3-(1-(3-(5-((1-(4-(4-(2-(2,6-dioxopiperidine-3-yl)-4-methyl-1-oxo-1,2-dihydropthalazine-6-yl)piperazine-1-yl)butanoyl)piperidine-4-il)methoxy)pyrimidine-2-yl)benzyl)6-oxo-1,6-dihydropyridazine-3-yl)benzonitrile], the figure is under 100 nM.

As to `Cc1nn(C2CCC(=O)NC2=O)c(=O)c2ccc(N3CCN(CCCCC(=O)N4CCC(COc5cnc(-c6cccc(Cn7nc(-c8cccc(C#N)c8)ccc7=O)c6)nc5)CC4)CC3)cc12` (stereo not shown) [ICT-0001176], the DC50 is under 100 nM.
